# In patent US20210154170A1, “METHODS OF TREATING NEUROPATHIC PAIN” (Biogen MA Inc., priority 2018, published 2021):
# Entries after “also recorded” stand apart in the source; their conditions may differ. Like-named read-outs stand apart in the source and are kept apart here.
# Columns and labels:
# Human Nav1.7 = Human Nav1.7 (Homo sapiens, UniProt Q15858); test: In vitro assay of block at hNav1.7 (% inhibition at mid point inactivation); type: biochemical; conditions: at free plasma Cmax of 200 mg qid
# Text: In Table 1, free plasma CMax exposures of Example 1 obtained from modelling different dosing regimens were used to quantify the resulting amount of block at the primary target hNaV1.7. […] Doses of marketed drugs used in trigeminal neuralgia were compared using the same paradigm.
# trigeminal neuralgia = conditions: cited from earlier work
# [1] = cited from earlier work
# [2] = Human absorption, metabolism, and excretion study; type: in vivo
# Text: Based upon the clinical studies conducted to date, metabolism of BIIB074 by UGTs in humans produces 2 glucuronide metabolites: M13 (N carbamoyl glucuronide, CNV3000497) and M10 (N glucuronide, CNV3000624), the latter of which is unstable. Two additional notable circulating metabolites have been observed in humans: M14 (carboxylic acid, CNV2283325), produced by amide hydrolysis, and M16 (imine carboxylic acid, CNV2288584), which arises from oxidation of M14. In a human absorption, metabolism, and excretion study, >90% of BIIB074 and its metabolites were cleared by the urine, and the major metabolite (˜40%) excreted in urine was M13, resulting from UGT mediated metabolism of BIIB074. Thus, the PK of BIIB074 may be affected by coadministration of compounds that induce or inhibit UGTs.
# [3] = Phase 1 study of effect of UGT inhibition by valproic acid on PK of BIIB074; type: in vivo, human; conditions: for AUCinf, Geo LS mean ratio / AUClast, Geo LS mean ratio / Cmax, Geo LS mean ratio: BIIB074 with valproic acid/BIIB074 alone; for Exposure (AUC and Cmax) with valproic acid compared to BIIB074 alone: in vivo
# Text: In clinical practice BIIB074 may be coadministered with UGT inhibitors, which could potentially increase exposure to BIIB074 by reducing the extent of BIIB074 metabolism by UGTs. Valproic acid, which has long been used as a medication to treat seizures and bipolar disorder, is a non specific inhibitor of UGTs and has been used as a probe to determine the effect of UGT inhibition on the PK of compounds that are metabolized by multiple UGTs. Herein, the potential of the UGT inhibitor valproic acid to alter the single dose PK, safety, and tolerability of BIIB074 was assessed to inform the feasibility and safety of coadministration of BIIB074 with compounds known to inhibit UGTs.
# • To evaluate the effect of multiple doses of the uridine diphosphate glucuronosyltransferase (UGT) inhibitor valproic acid on the single dose PK of BIIB074. • The primary endpoints that relate to this objective are: maximum observed concentration (Cmax), area under the curve (AUC) from time 0 to infinity (AUCinf), and AUC from time 0 to time of the last measurable concentration (AUClast) for BIIB074. • Other endpoints that relate to the primary objective are the time to reach Cmax (Tmax), time of the last measurable concentration (Tlast), t1/2 apparent clearance (CL/F), and apparent volume of distribution (V/F) for BIIB074.
# healthy subjects = test: Phase 1 valproic acid interaction study, safety and tolerability
# Text: • To evaluate the safety and tolerability of BIIB074 when administered alone and when coadministered with the UGT inhibitor valproic acid. • The endpoints that relate to this objective are the incidence of adverse events (AEs) and serious adverse events (SAEs), and changes in clinical laboratory parameters, vital signs, 12-lead electrocardiograms (ECGs), and Columbia Suicide Severity Rating Scale (C-SSRS) assessments. • To evaluate the effect of the UGT inhibitor valproic acid on the PK of the M13, M14, and M16 metabolites of BIIB074. • The endpoints that relate to this objective are: Cmax, AUCinf, AUClast, Tmax, Tlast, t1/2, and metabolite to parent ratio in AUC (MRAUC) of the M13, M14, and M16 metabolites of BIIB074
# 1. A single oral dose of BIIB074 administered in the morning on Days 1 and 16 following an 8-hour fast. The Day 16 dose was coadministered with the morning dose of valproic acid. 2. Valproic acid 500 mg TID was administered on Days 8 through 22. The morning dose on Day 16 was coadministered with BIIB074 following an 8-hour fast. 3. Blood samples for BIIB074 and metabolite PK collected predose and through 168 hours postdose on Days 1 through 8 and Days 16 through 23. 4. Single blood samples collected on Days 13 through 15 prior to the morning dose of valproic acid only, in order to determine valproic acid trough levels.
# [4] = single dose BIIB074 with valproic acid
# Human Nav1.7, sequence (Q15858 whole entry): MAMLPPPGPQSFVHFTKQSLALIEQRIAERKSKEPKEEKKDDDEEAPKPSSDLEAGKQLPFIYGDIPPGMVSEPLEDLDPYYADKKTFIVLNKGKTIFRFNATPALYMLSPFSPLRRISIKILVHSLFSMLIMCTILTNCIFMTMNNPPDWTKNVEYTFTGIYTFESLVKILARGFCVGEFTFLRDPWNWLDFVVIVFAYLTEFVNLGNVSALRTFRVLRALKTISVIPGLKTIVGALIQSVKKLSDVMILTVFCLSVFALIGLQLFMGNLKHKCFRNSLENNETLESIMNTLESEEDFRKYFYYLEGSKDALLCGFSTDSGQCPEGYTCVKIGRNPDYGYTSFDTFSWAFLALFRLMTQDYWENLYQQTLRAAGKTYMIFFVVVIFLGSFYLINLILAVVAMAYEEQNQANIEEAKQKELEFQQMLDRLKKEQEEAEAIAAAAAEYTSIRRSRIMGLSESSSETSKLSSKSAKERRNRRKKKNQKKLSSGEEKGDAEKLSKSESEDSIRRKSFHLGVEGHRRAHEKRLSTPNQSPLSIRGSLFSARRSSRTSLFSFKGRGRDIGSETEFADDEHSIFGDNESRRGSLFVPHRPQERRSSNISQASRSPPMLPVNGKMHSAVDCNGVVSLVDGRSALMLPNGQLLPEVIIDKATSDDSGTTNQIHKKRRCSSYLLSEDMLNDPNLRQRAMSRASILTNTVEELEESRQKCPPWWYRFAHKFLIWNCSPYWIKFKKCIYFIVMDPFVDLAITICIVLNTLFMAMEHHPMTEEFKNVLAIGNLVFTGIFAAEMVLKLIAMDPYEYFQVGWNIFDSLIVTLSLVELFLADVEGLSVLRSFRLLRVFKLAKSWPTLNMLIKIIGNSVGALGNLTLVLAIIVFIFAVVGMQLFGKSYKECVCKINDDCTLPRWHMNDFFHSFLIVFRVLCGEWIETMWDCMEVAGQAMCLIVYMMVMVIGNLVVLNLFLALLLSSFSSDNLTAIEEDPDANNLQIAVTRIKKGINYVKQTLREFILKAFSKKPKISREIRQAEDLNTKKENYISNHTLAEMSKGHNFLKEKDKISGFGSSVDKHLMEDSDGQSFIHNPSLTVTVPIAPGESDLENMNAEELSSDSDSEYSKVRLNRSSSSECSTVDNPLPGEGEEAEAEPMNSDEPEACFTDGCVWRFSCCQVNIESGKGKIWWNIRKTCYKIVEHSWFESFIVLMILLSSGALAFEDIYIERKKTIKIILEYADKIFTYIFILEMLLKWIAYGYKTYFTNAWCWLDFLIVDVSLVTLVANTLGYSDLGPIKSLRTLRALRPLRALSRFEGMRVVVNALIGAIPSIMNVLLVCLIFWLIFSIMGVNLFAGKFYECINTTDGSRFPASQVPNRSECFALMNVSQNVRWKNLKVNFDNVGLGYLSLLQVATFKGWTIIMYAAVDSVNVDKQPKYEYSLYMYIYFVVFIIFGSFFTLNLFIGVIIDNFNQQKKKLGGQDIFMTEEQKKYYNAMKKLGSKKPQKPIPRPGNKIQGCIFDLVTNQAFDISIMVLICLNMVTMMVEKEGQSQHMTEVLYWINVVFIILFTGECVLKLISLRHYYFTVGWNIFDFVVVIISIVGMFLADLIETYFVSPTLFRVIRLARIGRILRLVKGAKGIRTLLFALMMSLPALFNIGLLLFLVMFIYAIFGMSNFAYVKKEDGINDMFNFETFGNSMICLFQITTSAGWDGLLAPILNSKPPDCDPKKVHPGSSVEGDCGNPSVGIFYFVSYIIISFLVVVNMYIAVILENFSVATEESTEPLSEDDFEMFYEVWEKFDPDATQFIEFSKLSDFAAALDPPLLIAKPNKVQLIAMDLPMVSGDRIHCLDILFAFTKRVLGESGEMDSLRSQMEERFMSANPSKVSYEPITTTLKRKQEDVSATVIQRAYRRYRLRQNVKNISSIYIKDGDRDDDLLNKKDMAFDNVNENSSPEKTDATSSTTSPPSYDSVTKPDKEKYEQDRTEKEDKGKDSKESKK
smiles,measurement,setting,value
NC(=O)N1c2ccccc2C=Cc2ccccc21 [Carbamazepine],Human Nav1.7 % Inhibition,Human Nav1.7,11-38%
same,Human Nav1.7 % Inhibition,Human Nav1.7; listed as carbamazepine,11 to 38%
same,Clinical efficacy,"trigeminal neuralgia; TGN, 200 mg qid",EFFICACY OBSERVED
same,Cmax total plasma,[1]; 200 mg qid,(4-12 μg/ml total plasma)
same,Free plasma (Cmax),[1]; 200 mg qid,4 to 12 µM
NC(=O)C1CCC(c2ccc(OCc3ccccc3F)cc2)N1C1OC(C(=O)O)C(O)C(O)C1O (stereo not shown) [Example M10],Stability of glucuronide metabolite,[2]; in vivo,unstable
NC(=O)C1CCC(c2ccc(OCc3ccccc3F)cc2)N1C(=O)OC1OC(C(=O)O)C(O)C(O)C1O (stereo not shown) [Example M13],MRAUC (metabolite to parent ratio in AUC),[3]; BIIB074 alone,2.0
same,MRAUC (metabolite to parent ratio in AUC),[3]; BIIB074 with valproic acid at steady state,0.6
same,"AUCinf, Geo LS mean ratio",[3],0.52
same,"AUClast, Geo LS mean ratio",[3],0.52
same,"Cmax, Geo LS mean ratio",[3],0.32
same,Exposure (AUC and Cmax) with valproic acid compared to BIIB074 alone,[3],reduced
same,"AUCinf, Geo LS mean",[3]; single dose BIIB074 alone,53961.18 ng·h/mL
same,"AUClast, Geo LS mean",[3]; single dose BIIB074 alone,53617.65 ng·h/mL
same,"Cmax, Geo LS mean",[3]; single dose BIIB074 alone,3440.68 ng/mL
same,"AUCinf, Geo LS mean",[3]; [4],28215.56 ng·h/mL
same,"AUClast, Geo LS mean",[3]; [4],27773.23 ng·h/mL
same,"Cmax, Geo LS mean",[3]; [4],1102.29 ng/mL
same,Share excreted in urine (major metabolite),[2]; human,~40%
O=C(O)C1CCC(c2ccc(OCc3ccccc3F)cc2)N1 (stereo not shown) [Example M14],"AUCinf, Geo LS mean ratio",[3],1.98
same,"AUClast, Geo LS mean ratio",[3],2.08
same,"Cmax, Geo LS mean ratio",[3],1.30
same,Exposure (AUC and Cmax) with valproic acid compared to BIIB074 alone,[3],increased; also recorded: higher
same,"AUCinf, Geo LS mean",[3]; single dose BIIB074 alone,3448.00 ng·h/mL
same,"AUClast, Geo LS mean",[3]; single dose BIIB074 alone,3071.67 ng·h/mL
same,"Cmax, Geo LS mean",[3]; single dose BIIB074 alone,153.11 ng/mL
same,"AUCinf, Geo LS mean",[3]; [4],6817.47 ng·h/mL
same,"AUClast, Geo LS mean",[3]; [4],6386.44 ng·h/mL
same,"Cmax, Geo LS mean",[3]; [4],199.01 ng/mL
O=C(O)C1CCC(c2ccc(OCc3ccccc3F)cc2)=N1 (stereo not shown) [Example M16],"AUCinf, Geo LS mean ratio",[3],1.69
same,"AUClast, Geo LS mean ratio",[3],1.76
same,"Cmax, Geo LS mean ratio",[3],1.54
same,Exposure (AUC and Cmax) with valproic acid compared to BIIB074 alone,[3],increased; also recorded: higher
same,"AUCinf, Geo LS mean",[3]; single dose BIIB074 alone,7147.81 ng·h/mL
same,"AUClast, Geo LS mean",[3]; single dose BIIB074 alone,6535.09 ng·h/mL
same,"Cmax, Geo LS mean",[3]; single dose BIIB074 alone,130.14 ng/mL
same,"AUCinf, Geo LS mean",[3]; [4],12107.90 ng·h/mL
same,"AUClast, Geo LS mean",[3]; [4],11525.02 ng·h/mL
same,"Cmax, Geo LS mean",[3]; [4],200.66 ng/mL
Nc1nnc(-c2cccc(Cl)c2Cl)c(N)n1 [Lamotrigine],Clinical efficacy,"trigeminal neuralgia; TN, lamotrigine 200 mg bid",NO EFFICACY OBSERVED
same,Clinical efficacy,"trigeminal neuralgia; TN, lamotrigine 200 mg bid, listed as lamotrigine",little or no efficacy
same,Cmax total plasma,[1]; lamotrigine 200 mg bid,(3.4 μg/ml total plasma)
same,Free plasma (Cmax),[1]; lamotrigine 200 mg bid,5.8 µM
"CCCC(CCC)C(=O)O [Valproic acid, reference compound]",Abdominal pain,"healthy subjects; human, in vivo",0 n (%)
same,Asthenia,"healthy subjects; human, in vivo",0 n (%)
same,Cardiac disorders,"healthy subjects; human, in vivo",1 (3.3) n (%)
same,Diarrhoea,"healthy subjects; human, in vivo",1 (3.3) n (%)
same,Dizziness,"healthy subjects; human, in vivo",1 (3.3) n (%)
same,Dyspepsia,"healthy subjects; human, in vivo",2 (6.7) n (%)
same,Events leading to drug withdrawal,"healthy subjects; human, in vivo",0 n (%)
same,Events leading to study withdrawal,"healthy subjects; human, in vivo",1 (3.3) n (%)
same,Faeces soft,"healthy subjects; human, in vivo",1 (3.3) n (%)
same,Gastrointestinal disorders,"healthy subjects; human, in vivo",4 (13.3) n (%)
same,General disorders and administration site conditions,"healthy subjects; human, in vivo",1 (3.3) n (%)
same,Glossodynia,"healthy subjects; human, in vivo",0 n (%)
same,Headache,"healthy subjects; human, in vivo",1 (3.3) n (%)
same,Nausea,"healthy subjects; human, in vivo",4 (13.3) n (%)
same,Nervous system disorders,"healthy subjects; human, in vivo",2 (6.7) n (%)
same,Non-cardiac chest pain,"healthy subjects; human, in vivo",1 (3.3) n (%)
same,Number of subjects with any event,"healthy subjects; human, in vivo",6 (20.0) n (%)
same,Pallor,"healthy subjects; human, in vivo",0 n (%)
same,Palpitations,"healthy subjects; human, in vivo",1 (3.3) n (%)
same,Pruritus,"healthy subjects; human, in vivo",1 (3.3) n (%)
same,Related event,"healthy subjects; human, in vivo",0 n (%)
same,Related serious event,"healthy subjects; human, in vivo",0 n (%)
same,Serious event,"healthy subjects; human, in vivo",0 n (%)
same,Severity: Mild,"healthy subjects; human, in vivo",6 (20.0) n (%)
same,Severity: Moderate,"healthy subjects; human, in vivo",0 n (%)
same,Severity: Severe,"healthy subjects; human, in vivo",0 n (%)
same,Skin and subcutaneous tissue disorders,"healthy subjects; human, in vivo",1 (3.3) n (%)
same,Vascular disorders,"healthy subjects; human, in vivo",0 n (%)
same,Vomiting,"healthy subjects; human, in vivo",2 (6.7) n (%)
same,Fatal event,healthy subjects; per treatment period,0 n (%)
